Measurements reported in EP2380597A1, “Cyclopeptide derivatives and uses thereof” (Technische Universität München, priority 2010, dated 2011).
*1 amine or outer side, *2 acyl side, *3 side chain or, on linkers, in order; H or OH if unused. Where a SMILES comes first, the peptide text is derived from it. Bridges are numbered along the chain shown (N, C = ends). Roman numbers before positions name the chains, in order. [ ]: non-standard residue; d: D form. The star is where a group is joined. dAla(N-(6-guanidinohexyl)) = C[C@@H](NCCCCCCNC(=N)N)C(=O)O; DOTA = O=C(O)CN1CCN(CC(=O)O)CCN(CC(=O)*)CCN(CC(=O)O)CC1; X6 = C[C@H](C(=O)[*:2])N(CCCCCCCNC(=O)c1ccc(F)cc1)[*:1]; X14 = C[C@H](C(=O)[*:2])N(CCCCCNC(=O)c1ccc(F)cc1)[*:1]; X8 = C[C@H](C(=O)[*:2])N(CCCCCCNC(=O)c1ccc(F)cc1)[*:1]; X5 = C[C@H](C(=O)[*:2])N(CCCCCCNCc1cccc2ccccc12)[*:1]; X9 = C[C@H](C(=O)[*:2])N(CCCCNC(=O)c1ccc(F)cc1)[*:1]; X4 = C[C@H](C(=O)[*:2])N(CCCCCCNCc1ccccc1)[*:1]; X1 = C[C@@H](C(=O)[*:2])N(CCCCCCNC(=N)N)[*:1]; X7 = CC(=O)NCCCCCCN([C@H](C)C(=O)[*:2])[*:1]; X3 = C[C@H](C(=O)[*:2])N(CCCCCCN[*:3])[*:1]; X10 = C[C@@H](C(=O)[*:2])N(CCCCCCN)[*:1]; X12 = C[C@H](C(=O)[*:2])N(CCCCCCN)[*:1]; X2 = C[C@H](C(=O)[*:2])N(CCCCCCCN)[*:1]; X13 = C[C@H](C(=O)[*:2])N(CCCCCN)[*:1]; 2Nal = N[C@@H](Cc1ccc2ccccc2c1)C(=O)O; Suberoyl = O=C(CCCCCCC(=O)[*:2])[*:1]; X11 = C[C@H](C(=O)[*:2])N(CCCCN)[*:1]; Adipoyl = O=C(CCCCC(=O)[*:2])[*:1]; Gly(N-(CH2)6NH2) = NCCCCCCNCC(=O)O; Suc = O=C(CCC(=O)[*:2])[*:1]

target: T1, CXCR4 receptor (Homo sapiens, UniProt P61073); test: Receptor binding assay (competition with 125I tracer on Jurkat cells); details: tracer cyclo(-D-Tyr^1 [^125I]-Arg^2-Arg^3-Nal^4-Gly^5), 2 h at room temperature, D-Ala N-hexyl series, R varied
T1 construct: endogenous in cells; host or cells: Jurkat cells
T1 sequence (P61073 whole entry): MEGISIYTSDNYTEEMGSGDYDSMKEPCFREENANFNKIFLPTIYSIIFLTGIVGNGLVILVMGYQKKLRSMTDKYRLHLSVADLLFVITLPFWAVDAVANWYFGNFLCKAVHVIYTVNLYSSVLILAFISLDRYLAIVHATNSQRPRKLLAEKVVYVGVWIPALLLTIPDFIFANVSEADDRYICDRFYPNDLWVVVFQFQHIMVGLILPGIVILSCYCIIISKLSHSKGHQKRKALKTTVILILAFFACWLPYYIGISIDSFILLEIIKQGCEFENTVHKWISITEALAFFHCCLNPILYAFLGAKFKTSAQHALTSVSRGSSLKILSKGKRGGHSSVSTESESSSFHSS
Method: For receptor binding assays cells were resuspended in PBS/0.2 % BSA. A total of 200 µl of the suspension containing 400,000 Jurkat cells were incubated with 25 µl of the tracer solution (containing 100000cpm / 25µl, approx. 0.1 nM) and 25 µl of the diluent or the competitor at different concentrations. For determination of IC50 values, cyclo(-D-Tyr^1 [^125I]-Arg^2-Arg^3-Nal^4-Gly^5) was used as a tracer. Nonspecific binding was determined in the presence of 1 µM cold cyclo(-D-Tyr^1[^127I]-Arg^2-Arg^3-Nal^4-Gly^5). After shaking for 2 h at room temperature, the incubation was terminated by centrifugation at 2000 rpm for 5 min. Cell pellets were washed once with 400µl cold PBS followed by a second centrifugation step. Cell bound radioactivity was determined by using a gamma counter. Experiments were repeated 2-3 times in triplicates. IC50 values of the compounds were calculated by nonlinear regression using GraphPad Prism (GraphPad Prism 4.0 Software, Inc., San Diego, CA, USA). Each data point is the average of three determinations.

IC50 [nM]	Structure (SMILES)
21.4 ± 5.8	C[C@@H]1C(=O)N[C@@H](CCCNC(=N)N)C(=O)N[C@@H](Cc2ccc3ccccc3c2)C(=O)NCC(=O)N[C@H](Cc2ccc(O)cc2)C(=O)N1CCCCCCNC(=O)c1ccc(F)cc1 [ya(Hex, FBz) RNalG, cyclo(-D-Tyr-(α-6-aminohexyl, 4-fluorobenzoic acid)-D-Ala-R-Nal-G)] (cyclo([2Nal]G[dY][X8]R))
5.1 ± 1.3	C[C@@H]1C(=O)N[C@@H](CCCNC(=N)N)C(=O)N[C@@H](Cc2ccc3ccccc3c2)C(=O)NCC(=O)N[C@H](Cc2ccc(O)cc2)C(=O)N1CCCCCCNCc1cccc2ccccc12 [ya(Hex,1 Nap) RNalG, cyclo(-D-Tyr-(α-6-aminohexyl,1-naphthylmethyl)-D-Ala-R-Nal-G)] (cyclo([2Nal]G[dY][X5]R))
509.7 ± 0.2	C[C@@H]1C(=O)N[C@@H](CCCNC(=N)N)C(=O)N[C@@H](Cc2ccc3ccccc3c2)C(=O)NCC(=O)N[C@H](Cc2ccc(O)cc2)C(=O)N1CCCCCCNC(=O)CN1CCN(CC(=O)O)CCN(CC(=O)O)CCN(CC(=O)O)CC1 [ya(Hex,DOTA) RNalG, cyclo(-D-Tyr-(α-6-aminohexyl, DOTA)-D-Ala-R-Nal-G)] (cyclo([2Nal]G[dY][X3](DOTA)R))
44.1 ± 6.2	CC(=O)NCCCCCCN1C(=O)[C@@H](Cc2ccc(O)cc2)NC(=O)CNC(=O)[C@H](Cc2ccc3ccccc3c2)NC(=O)[C@H](CCCNC(=N)N)NC(=O)[C@H]1C [ya(Hex,Ac) RNalG, cyclo(-D-Tyr-(α-6-aminohexyl, Ac)-D-Ala-R-Nal-G)] (cyclo([2Nal]G[dY][X7]R))
4.2 ± 1.4	C[C@@H]1C(=O)N[C@@H](CCCNC(=N)N)C(=O)N[C@@H](Cc2ccc3ccccc3c2)C(=O)NCC(=O)N[C@H](Cc2ccc(O)cc2)C(=O)N1CCCCCCNCc1ccccc1 [ya(Hex, Bz) RNalG, cyclo(-D-Tyr-(α-6-aminohexyl, benzyl)-D-Ala-R-Nal-G)] (cyclo([2Nal]G[dY][X4]R))
0.3 ± 0.2	C[C@@H]1C(=O)N[C@@H](CCCNC(=N)N)C(=O)N[C@@H](Cc2ccc3ccccc3c2)C(=O)NCC(=O)N[C@H](Cc2ccc(O)cc2)C(=O)N1CCCCCCN [ya(Hex)RNalG] (cyclo([2Nal]G[dY][X12]R))
0.04 ± 0.02	C[C@@H]1C(=O)N[C@@H](CCCNC(=N)N)C(=O)N[C@@H](Cc2ccc3ccccc3c2)C(=O)NCC(=O)N[C@H](Cc2ccc(O)cc2)C(=O)N1CCCCCCNC(=N)N [ya(Hex, Gua) RNalG, cyclo(-D-Tyr-(α-6-guanidinohexyl)-D-Ala-R-Nal-G)] (cyclo([dY][dAla(N-(6-guanidinohexyl))]R[2Nal]G))

same assay, conditions: tracer cyclo(-D-Tyr^1 [^125I]-Arg^2-Arg^3-Nal^4-Gly^5), 2 h at room temperature, Gly analogue

IC50 [nM]	Structure (SMILES)
104	N=C(N)NCCC[C@@H]1NC(=O)CN(CCCCCCN)C(=O)[C@@H](Cc2ccc(O)cc2)NC(=O)CNC(=O)[C@H](Cc2ccc3ccccc3c2)NC1=O [yG(Hex)RNalG, cyclo(-D-Tyr-(α-6-aminohexyl)-G-R-Nal-G)] (cyclo([2Nal]G[dY][Gly(N-(CH2)6NH2)]R))

same assay, conditions: tracer cyclo(-D-Tyr^1 [^125I]-Arg^2-Arg^3-Nal^4-Gly^5), 2 h at room temperature, L-Ala series

IC50 [nM]	Structure (SMILES)
4.4 ± 0.3	C[C@H]1C(=O)N[C@@H](CCCNC(=N)N)C(=O)N[C@@H](Cc2ccc3ccccc3c2)C(=O)NCC(=O)N[C@H](Cc2ccc(O)cc2)C(=O)N1CCCCCCNC(=N)N [yA(Hex,Gua)RNa IG, cyclo(-D-Tyr-(α-6-guanidinohexyl)-L-Ala-R-Nal-G)] (cyclo([2Nal]G[dY][X1]R))
94.2 ± 38	C[C@H]1C(=O)N[C@@H](CCCNC(=N)N)C(=O)N[C@@H](Cc2ccc3ccccc3c2)C(=O)NCC(=O)N[C@H](Cc2ccc(O)cc2)C(=O)N1CCCCCCN [yA(Hex)RNalG] (cyclo([2Nal]G[dY][X10]R))

same assay, conditions: tracer cyclo(-D-Tyr^1 [^125I]-Arg^2-Arg^3-Nal^4-Gly^5), 2 h at room temperature, alkyl chain length n varied

Structure (SMILES)	IC50 [nM]
C[C@@H]1C(=O)N[C@@H](CCCNC(=N)N)C(=O)N[C@@H](Cc2ccc3ccccc3c2)C(=O)NCC(=O)N[C@H](Cc2ccc(O)cc2)C(=O)N1CCCCCCCNC(=O)c1ccc(F)cc1 [ya(Hept,FBz)RNalG, cyclo(-D-Tyr-(α-7-aminoheptyl, 4-fluorobenzoic acid)-D-Ala-R-Nal-G)] (cyclo([dY][X6]R[2Nal]G))	16.5 ± 3.1
C[C@@H]1C(=O)N[C@@H](CCCNC(=N)N)C(=O)N[C@@H](Cc2ccc3ccccc3c2)C(=O)NCC(=O)N[C@H](Cc2ccc(O)cc2)C(=O)N1CCCCCCCN [ya(Hept)RNalG, cyclo(-D-Tyr-(α-7-aminoheptyl)-D-Ala-R-Nal-G)] (cyclo([2Nal]G[dY][X2]R))	2.4 ± 0.8
C[C@@H]1C(=O)N[C@@H](CCCNC(=N)N)C(=O)N[C@@H](Cc2ccc3ccccc3c2)C(=O)NCC(=O)N[C@H](Cc2ccc(O)cc2)C(=O)N1CCCCN [ya(But)RNalG, cyclo(-D-Tyr-(α-4-aminobutyl)-D-Ala-R-Nal-G)] (cyclo([2Nal]G[dY][X11]R))	0.9 ± 0.1
C[C@@H]1C(=O)N[C@@H](CCCNC(=N)N)C(=O)N[C@@H](Cc2ccc3ccccc3c2)C(=O)NCC(=O)N[C@H](Cc2ccc(O)cc2)C(=O)N1CCCCNC(=O)c1ccc(F)cc1 [ya(But,FBz)RNalG, cyclo(-D-Tyr-(α-4-aminobutyl, 4-fluorobenzoic acid)-D-Ala-R-Nal-G)] (cyclo([2Nal]G[dY][X9]R))	26 ± 5.7

More lines, now with the values ahead:

IC50 [nM]	Structure (SMILES)
1.6 ± 0.3	C[C@@H]1C(=O)N[C@@H](CCCNC(=N)N)C(=O)N[C@@H](Cc2ccc3ccccc3c2)C(=O)NCC(=O)N[C@H](Cc2ccc(O)cc2)C(=O)N1CCCCCN [ya(Pent)RNalG, cyclo(-D-Tyr-(α-5-aminopentyl)-D-Ala-R-Nal-G)] (cyclo([2Nal]G[dY][X13]R))
34.2 ± 9.3	C[C@@H]1C(=O)N[C@@H](CCCNC(=N)N)C(=O)N[C@@H](Cc2ccc3ccccc3c2)C(=O)NCC(=O)N[C@H](Cc2ccc(O)cc2)C(=O)N1CCCCCNC(=O)c1ccc(F)cc1 [ya(Pent, FBz)RNalG, cyclo(-D-Tyr-(α-5-aminopentyl, 4-fluorobenzoic acid)-D-Ala-R-Nal-G)] (cyclo([2Nal]G[dY][X14]R))

same assay, conditions: tracer cyclo(-D-Tyr^1 [^125I]-Arg^2-Arg^3-Nal^4-Gly^5), 2 h at room temperature, dimers

IC50 [nM]	Structure (SMILES)
7.8 ± 3.1	C[C@@H]1C(=O)N[C@@H](CCCNC(=N)N)C(=O)N[C@@H](Cc2ccc3ccccc3c2)C(=O)NCC(=O)N[C@H](Cc2ccc(O)cc2)C(=O)N1CCCCCCNC(=O)CCCCC(=O)NCCCCCCN1C(=O)[C@@H](Cc2ccc(O)cc2)NC(=O)CNC(=O)[C@H](Cc2ccc3ccccc3c2)NC(=O)[C@H](CCCNC(=N)N)NC(=O)[C@H]1C [Dimer 6, ya(Hex)RNalG hexan-1,6-diacid dimer] (I: cyclo([2Nal]G[dY][X3]R) / II: cyclo([2Nal]G[dY][X3]R); linker I:4-II:4 via Adipoyl)
15.9 ± 10.6	C[C@@H]1C(=O)N[C@@H](CCCNC(=N)N)C(=O)N[C@@H](Cc2ccc3ccccc3c2)C(=O)NCC(=O)N[C@H](Cc2ccc(O)cc2)C(=O)N1CCCCCCNC(=O)CCCCCCC(=O)NCCCCCCN1C(=O)[C@@H](Cc2ccc(O)cc2)NC(=O)CNC(=O)[C@H](Cc2ccc3ccccc3c2)NC(=O)[C@H](CCCNC(=N)N)NC(=O)[C@H]1C [Dimer 8, ya(Hex)RNalG octan-1,8-diacid dimer] (I: cyclo([2Nal]G[dY][X3]R) / II: cyclo([2Nal]G[dY][X3]R); linker I:4-II:4 via Suberoyl)
5.5 ± 1.4	C[C@@H]1C(=O)N[C@@H](CCCNC(=N)N)C(=O)N[C@@H](Cc2ccc3ccccc3c2)C(=O)NCC(=O)N[C@H](Cc2ccc(O)cc2)C(=O)N1CCCCCCNC(=O)CCC(=O)NCCCCCCN1C(=O)[C@@H](Cc2ccc(O)cc2)NC(=O)CNC(=O)[C@H](Cc2ccc3ccccc3c2)NC(=O)[C@H](CCCNC(=N)N)NC(=O)[C@H]1C [Dimer 4, ya(Hex)RNalG butan-1,4-diacid dimer] (I: cyclo([2Nal]G[dY][X3]R) / II: cyclo([2Nal]G[dY][X3]R); linker I:4-II:4 via Suc)
